Measured values: article PMC4931022, “Arginine demethylation is catalysed by a subset of JmjC histone lysine demethylases” (Nature Communications, 2016)
Blank lines part the entries; values can stand above or below the substance they belong to.

Key:
Type in all cases: biochemical
[1] = target: T1, KDM5C (Homo sapiens, UniProt P41229); experiment: MALDI MS activity assay, recombinant KDM5C catalytic domain; conditions: peptide 10 μM, 1 h, 37 °C, MALDI-TOF MS; for demethylation, in words: KDM5C catalytic domain 2 μM; for observed arginine demethylation activity: KDM5C 2 μM, 2OG 100 μM, ascorbate 100 μM, Fe(II) 10 μM, 50 mM HEPES pH 7.5, −14 Da shift
T1 construct: KDM5C1–765 was produced as an N-terminally His6-tagged protein in Sf9 cells; His6 (N); made in house; host or cells: Sf9 cells (provided by the Structural Genomics Consortium)
T1 sequence (P41229 1-765): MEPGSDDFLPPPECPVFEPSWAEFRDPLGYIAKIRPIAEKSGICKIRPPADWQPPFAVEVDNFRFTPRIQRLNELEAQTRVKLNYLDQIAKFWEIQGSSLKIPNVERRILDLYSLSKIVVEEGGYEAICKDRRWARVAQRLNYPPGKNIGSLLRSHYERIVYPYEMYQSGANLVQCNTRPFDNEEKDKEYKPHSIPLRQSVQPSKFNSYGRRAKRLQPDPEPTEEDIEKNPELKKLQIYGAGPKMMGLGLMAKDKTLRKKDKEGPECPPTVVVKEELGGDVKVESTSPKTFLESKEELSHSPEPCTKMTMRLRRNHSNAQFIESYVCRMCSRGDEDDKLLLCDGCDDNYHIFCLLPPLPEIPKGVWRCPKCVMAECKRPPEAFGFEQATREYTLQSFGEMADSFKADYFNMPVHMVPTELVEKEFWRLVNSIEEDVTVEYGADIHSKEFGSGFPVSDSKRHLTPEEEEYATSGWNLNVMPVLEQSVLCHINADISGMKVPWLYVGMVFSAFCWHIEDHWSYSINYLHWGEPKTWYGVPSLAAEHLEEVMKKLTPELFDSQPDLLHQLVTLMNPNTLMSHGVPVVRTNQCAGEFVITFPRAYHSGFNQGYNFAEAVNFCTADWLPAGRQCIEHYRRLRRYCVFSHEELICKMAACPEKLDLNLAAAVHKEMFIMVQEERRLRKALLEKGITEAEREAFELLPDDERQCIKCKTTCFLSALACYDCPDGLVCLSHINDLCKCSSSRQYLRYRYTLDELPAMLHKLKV
Experimental: (§1) MALDI MS activity assays. Recombinant proteins (2 μM) were incubated with peptides (10 μM, sequences are given in Supplementary Table 1) and cofactors/substrates for 1 h at 37 °C, unless otherwise specified. Reactions were quenched with 1:1 (v/v) methanol and analysed with MALDI MS. Assay conditions for each enzyme are given in Supplementary Table 2. Negative controls without enzyme were included.
(§2) Supplementary Table 2 Assay conditions with truncated recombinant protein. […]

[2] = target: T2, KDM4E (Homo sapiens, UniProt B2RXH2); experiment: MALDI MS activity assay, recombinant KDM4E catalytic domain; conditions: peptide 10 μM, 1 h, 37 °C, MALDI-TOF MS; for demethylation, in words: KDM4E catalytic domain 2 μM; for observed arginine demethylation activity: KDM4E 2 μM, 2OG 200 μM, ascorbate 100 μM, Fe(II) 10 μM, 50 mM HEPES pH 7.5, −14 Da shift
T2 construct: His6 (N); made in house; host or cells: Escherichia coli
T2 sequence (B2RXH2 1-337): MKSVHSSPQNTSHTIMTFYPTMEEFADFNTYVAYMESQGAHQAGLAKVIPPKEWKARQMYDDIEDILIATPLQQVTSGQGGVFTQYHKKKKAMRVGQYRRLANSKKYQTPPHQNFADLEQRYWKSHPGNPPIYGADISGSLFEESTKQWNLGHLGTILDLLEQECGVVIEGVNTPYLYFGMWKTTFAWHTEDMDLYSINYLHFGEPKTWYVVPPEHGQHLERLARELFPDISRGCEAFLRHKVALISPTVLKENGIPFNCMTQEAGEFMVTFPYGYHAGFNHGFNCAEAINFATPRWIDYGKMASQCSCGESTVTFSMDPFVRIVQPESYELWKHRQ
Experimental: as §1, §2

[3] = target: T3, KDM3A (Homo sapiens, UniProt Q9Y4C1); experiment: MALDI MS activity assay, recombinant KDM3A catalytic domain; conditions: KDM3A 2 μM, peptide 10 μM, 1 h, 37 °C, 2OG 100 μM, ascorbate 100 μM, Fe(II) 50 μM, 50 mM HEPES pH 7.5; MALDI-TOF MS, −14 Da shift
T3 construct: KDM3A515–1,317; His6 (N); made in house; host or cells: Sf9 cells
T3 sequence (Q9Y4C1 515-1317 limits assumed): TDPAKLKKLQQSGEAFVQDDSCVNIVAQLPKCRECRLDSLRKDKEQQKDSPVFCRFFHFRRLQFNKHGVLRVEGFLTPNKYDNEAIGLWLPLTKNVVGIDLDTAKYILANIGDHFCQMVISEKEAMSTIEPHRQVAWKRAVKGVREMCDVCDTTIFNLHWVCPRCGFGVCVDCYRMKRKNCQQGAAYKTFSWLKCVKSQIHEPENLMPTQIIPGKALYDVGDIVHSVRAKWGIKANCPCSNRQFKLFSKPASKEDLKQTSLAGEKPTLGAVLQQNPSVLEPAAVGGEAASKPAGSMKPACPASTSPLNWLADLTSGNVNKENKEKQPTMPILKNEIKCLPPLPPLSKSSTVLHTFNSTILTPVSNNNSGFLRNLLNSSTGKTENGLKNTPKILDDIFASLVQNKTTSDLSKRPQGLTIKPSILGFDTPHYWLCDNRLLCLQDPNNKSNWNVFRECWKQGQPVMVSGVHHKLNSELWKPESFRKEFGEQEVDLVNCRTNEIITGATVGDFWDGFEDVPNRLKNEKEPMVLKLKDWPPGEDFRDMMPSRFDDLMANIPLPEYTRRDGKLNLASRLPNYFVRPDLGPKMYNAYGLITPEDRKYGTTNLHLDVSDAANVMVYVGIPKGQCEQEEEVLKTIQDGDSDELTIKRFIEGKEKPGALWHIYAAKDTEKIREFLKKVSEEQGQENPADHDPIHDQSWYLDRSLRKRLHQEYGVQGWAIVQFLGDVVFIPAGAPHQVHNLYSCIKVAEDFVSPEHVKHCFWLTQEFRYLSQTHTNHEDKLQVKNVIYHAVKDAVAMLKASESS
Experimental: as §1
(§3) Supplementary Table 2 Assay conditions with truncated recombinant protein.
(§4) Supplementary Table 3 Assay conditions with full length Flag-tagged KDMs.

[4] = target: T4, KDM6B (Homo sapiens, UniProt O15054); experiment: MALDI MS activity assay, recombinant KDM6B catalytic domain; conditions: KDM6B 2 μM, peptide 10 μM, 1 h, 37 °C, 2OG 100 μM, ascorbate 100 μM, Fe(II) 10 μM, 50 mM HEPES pH 7.5, 150 mM NaCl; MALDI-TOF MS, −14 Da shift
T4 construct: His6 (N); made in house; host or cells: Escherichia coli
T4 sequence (O15054 1141-1590 limits assumed): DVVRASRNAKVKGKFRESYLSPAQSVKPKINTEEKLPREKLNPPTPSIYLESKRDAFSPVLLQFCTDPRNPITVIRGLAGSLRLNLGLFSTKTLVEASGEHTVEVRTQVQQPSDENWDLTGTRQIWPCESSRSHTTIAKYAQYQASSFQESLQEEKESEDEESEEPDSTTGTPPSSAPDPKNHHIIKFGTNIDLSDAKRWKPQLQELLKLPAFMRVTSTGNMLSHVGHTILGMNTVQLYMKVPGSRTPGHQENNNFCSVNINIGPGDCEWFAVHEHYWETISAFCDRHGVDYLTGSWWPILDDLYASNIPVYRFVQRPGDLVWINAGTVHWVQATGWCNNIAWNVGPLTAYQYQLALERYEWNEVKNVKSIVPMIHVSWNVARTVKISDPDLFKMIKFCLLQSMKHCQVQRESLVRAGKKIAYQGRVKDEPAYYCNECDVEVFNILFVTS
Experimental: as §1, §3, §4

[5] = target: T1, KDM5C; experiment: Formaldehyde dehydrogenase-coupled demethylation assay, KDM5C; conditions: for kcat / Km: KDM5C catalytic domain, apparent, preliminary, 37 °C, mean±s.e.m., n=3; for kcat: FDH/NAD+-coupled assay; for Km: FDH/NAD+-coupled formaldehyde assay, 2OG 200 μM, Fe(II) 10 μM, ascorbate 100 μM; for kcat/KM: KDM5C, calculated from the average kcat and KM values, μM^−1 s^−1 for this quantity
Experimental: (§5) Formaldehyde dehydrogenase-coupled assays. Preliminary kinetic parameters were determined by detection of the formaldehyde by-product of the demethylation reaction using a FDH (formaldehyde dehydrogenase-coupled)/NAD^+-coupled assay as previously described. Assays were carried out in buffer (enzyme-dependent) with the addition of Fe(II) ammonium sulfate (10 μM), sodium ascorbate (100 μM), 2OG (200 μM), NAD^+ (500 μM), enzyme (0.2–4 μM) and FDH enzyme (0.025 U per assay, Sigma-Aldrich; total volume 30 μl) and were conducted at 37 °C in clear-bottom black 384-well plates. […] The Km and Vmax values were calculated from the reaction rate during the linear phase of formaldehyde production, as determined by the slope of the fluorescence signal recorded.

[6] = target: T3, KDM3A; experiment: Formaldehyde dehydrogenase-coupled demethylation assay, KDM3A; conditions: for kcat / Km: KDM3A catalytic domain, apparent, preliminary, 37 °C, mean±s.e.m., n=3; for kcat: FDH/NAD+-coupled assay; for Km: FDH/NAD+-coupled formaldehyde assay, 2OG 200 μM, Fe(II) 10 μM, ascorbate 100 μM, fluorescence 355/460 nm; for kcat/KM: KDM3A, calculated from the average kcat and KM values, μM^−1 s^−1 for this quantity
Experimental: as §5

[7] = target: T2, KDM4E; experiment: Formaldehyde dehydrogenase-coupled demethylation assay, KDM4E; conditions: for Km: FDH/NAD+-coupled formaldehyde assay, 2OG 200 μM, Fe(II) 10 μM, ascorbate 100 μM
Experimental: as §5

[8] = KDM4E catalytic domain, apparent, preliminary, FDH/NAD+-coupled assay, 37 °C, mean±s.e.m., n=3
[9] = KDM4E catalytic domain, apparent, preliminary, 37 °C, mean±s.e.m., n=3
[10] = KDM4E, calculated from the average kcat and KM values, μM^−1 s^−1 for this quantity

demethylation, in words [1]: not observed to be a KDM substrate
demethylation, in words ([1]; listed as H3(1–15)R2Kme3): no demethylation activity
demethylation, in words [2]: not observed to be a KDM substrate
demethylation, in words ([2]; listed as H3(1–15)R2Kme3): no demethylation activity
Substance: A-Kme3-TKQTARKSTGGKA [H3R2Kme3, histone H3 peptide with trimethyllysine substituted for R2]

observed arginine demethylation activity [3]: −
observed arginine demethylation activity [4]: −
observed arginine demethylation activity [1]: +
observed arginine demethylation activity [2]: +
Substance: A-Rme-TKQTARKSTGGKA [H3 (1–15) R2me, 'natural' histone H3 peptide monomethylated at R2]

Substance: ART-Kme3-QTARKSTGGKA [H3(1-15)K4me3, recognized histone H3 N-methylated-lysine peptide substrate for KDM5C, reference compound]
kcat [5]: 67.1±10.3 × 10^−3 s^−1
Km [5]: 7.6 ± 2.9 µM
kcat/KM [5]: 8,800 × 10^−6

Substance: ART-Rme2a-QTARKSTGGKA [H3(1-15)K4Rme2a, histone H3 fragment with asymmetric dimethylarginine replacing methylated K4]
kcat [5]: 41.2±3.5 × 10^−3 s^−1
Km [5]: 29 ± 0.5 µM
kcat/KM [5]: 1,420.0 × 10^−6

Substance: ART-Rme2s-QTARKSTGGKA [H3(1-15)K4Rme2s, histone H3 fragment with symmetric dimethylarginine replacing methylated K4]
kcat [5]: 4.6±0.7 × 10^−3 s^−1
Km [5]: 21.1 ± 5.8 µM
kcat/KM [5]: 219.0 × 10^−6

Substance: ARTKQTAR-Rme2a-STGGKA (ARTKQTARRSTGGKA; asymmetric dimethylarginine at 9; C-terminal amide) [H3(1-15)K9Rme2a, histone H3 fragment with asymmetric dimethylarginine replacing methylated K9]
kcat [6]: 5.0±0.6 × 10^−3 s^−1
Km [6]: 11.6 ± 1.4 µM
kcat/KM [6]: 430.7 × 10^−6
kcat/KM ([7]; KDM4E): 7.04e-05 µM⁻¹ s⁻¹
kcat [7, 8]: 4.6±0.7 × 10^−3 s^−1
Km [7, 9]: 66 ± 5 µM
kcat/KM [7, 10]: 70.4 × 10^−6

Substance: ARTKQTAR-Rme2s-STGGKA (ARTKQTARRSTGGKA; symmetric dimethylarginine at 9; C-terminal amide) [H3(1-15)K9Rme2s, histone H3 fragment with symmetric dimethylarginine replacing methylated K9]
kcat [6]: 3.0±0.3 × 10^−3 s^−1
Km [6]: 23.7 ± 1.9 µM
kcat/KM [6]: 126.5 × 10^−6
kcat/KM ([7]; KDM4E): 8.59e-05 µM⁻¹ s⁻¹
kcat [7, 8]: 8.7±0.3 × 10^−3 s^−1
Km [7, 9]: 101 ± 11 µM
kcat/KM [7, 10]: 85.9 × 10^−6

Substance: ARTKQTAR-Rme-STGGKA (ARTKQTARRSTGGKA; monomethylarginine at 9; C-terminal amide) [H3(1-15)K9Rme, histone H3 fragment with monomethylarginine replacing methylated K9]
kcat [6]: 11.0±1.2 × 10^−3 s^−1
Km [6]: 12.1 ± 3.1 µM
kcat/KM [6]: 907.6 × 10^−6
kcat [7, 8]: 2.7±0.2 × 10^−3 s^−1
Km [7, 9]: 169 ± 35.9 µM
kcat ([7]; KDM4E, FDH-coupled assay): 0.0027 ± 0.0002 s⁻¹
kcat/KM [7, 10]: 15.9 × 10^−6

observed arginine demethylation activity [3]: −
observed arginine demethylation activity [4]: −
observed arginine demethylation activity [1]: −
observed arginine demethylation activity [2]: +
Substance: KQLATKAA-Rme2a-KSAPAT [H3 (18–32) R26me2a, 'natural' histone H3 peptide asymmetrically dimethylated at R26]

observed arginine demethylation activity [3]: −
observed arginine demethylation activity [4]: −
observed arginine demethylation activity [1]: −
observed arginine demethylation activity [2]: +
Substance: KQLATKAA-Rme-KSAPAT [H3 (18–32) R26me, 'natural' histone H3 peptide monomethylated at R26]

demethylation, in words [1]: low levels of demethylation
demethylation, in words [2]: low levels of demethylation
Substance: SG-Rme2a-GKGGKGLGKGGAK [H4R3me2a]
